Results as given in ChEMBL document CHEMBL4765339, “Design, synthesis, and biological evaluation of 4-substituted-3,4-dihydrobenzo[h]quinoline-2,5,6(1H)-triones as NQO1-directed antitumor agents” (Eur J Med Chem, 2020).

Tests used:
[1] = target: NAD(P)H dehydrogenase [quinone] 1 (Homo sapiens) (UniProt P15559); experiment: Substrate activity at recombinant human C-terminal His-tagged NQO1 (1 to 274 residues) expressed in Escherichia coli assessed as enzyme activity by measuring oxidation of NADPH incubated for 5 mins measured per micromol of enzyme every 5 sec for 1 mins by UV-visible spectrophotometry
MCF7 = experiment: Cytotoxicity against NQO1-rich human MCF7 cells assessed as reduction in cell growth incubated for 48 hrs by MTT assay; type: functional
A549 [2] = experiment: Cytotoxicity against human A549 cells assessed as reduction in cell growth incubated for 48 hrs by MTT assay; type: functional
HepG2 [3] = experiment: Cytotoxicity against human HepG2 cells assessed as reduction in cell growth incubated for 48 hrs by MTT assay; type: functional
HepG2 [4] = experiment: Antitumor activity against human HepG2 cells xenografted in athymic nude mouse assessed as inhibition of tumor growth at 20 mg/kg, iv administered once every 2 days for 19 days by caliper analysis relative to control; type: functional; conditions: 456 h, time 19 day
[5] = Selectivity index, ratio of GI50 for human A549 cells pretreated for 1 hr with ROS scavenger, N-acetyl cysteine followed by incubation with compound for 48 hrs to GI50 for human A549 cells measured after 48 hrs by MTT assay; type: functional
HepG2 [6] = experiment: Cytotoxicity against human HepG2 cells assessed as reduction in cell growth pretreated for 1 hr with ROS scavenger, N-acetyl cysteine followed by incubation with compound for 48 hrs by MTT assay; type: functional
A549 [7] = experiment: Cytotoxicity against human A549 cells assessed as reduction in cell growth pretreated for 1 hr with ROS scavenger, N-acetyl cysteine followed by incubation with compound for 48 hrs by MTT assay; type: functional
HepG2 [8] = experiment: Induction of ROS generation in human HepG2 cells at 5 uM by DCFH-DA staining based flow cytometry analysis; type: functional, cell-based; conditions: time 3-5 hrs, TDE = time-dependent effect
[9] = Selectivity index, ratio of GI50 for human A549 cells pretreated for 1 hr with NQO1 inhibitor, dicoumarol followed by incubation with compound for 48 hrs to GI50 for human A549 cells measured after 48 hrs by MTT assay; type: functional
A549 [10] = experiment: Cytotoxicity against human A549 cells assessed as reduction in cell growth pretreated for 1 hr with NQO1 inhibitor, dicoumarol followed by incubation with compound for 48 hrs by MTT assay; type: functional
[11] = Selectivity index, ratio of GI50 for human HepG2 cells pretreated for 1 hr with ROS scavenger, N-acetyl cysteine followed by incubation with compound for 48 hrs to GI50 for human HepG2 cells measured after 48 hrs by MTT assay; type: functional
[12] = Cytotoxicity against human L02 cells assessed as reduction in cell growth incubated for 48 hrs by MTT assay; type: cell-based
HepG2 [13] = experiment: Cytotoxicity against human HepG2 cells assessed as reduction in cell growth pretreated for 1 hr with NQO1 inhibitor, dicoumarol followed by incubation with compound for 48 hrs by MTT assay; type: functional
[14] = Selectivity index, ratio of GI50 for human HepG2 cells pretreated for 1 hr with NQO1 inhibitor, dicoumarol followed by incubation with compound for 48 hrs to GI50 for human HepG2 cells measured after 48 hrs by MTT assay; type: functional

Compound | Activity [1] [µmol/min] | further results
O=C1CC(c2cccs2)C2=C(N1)c1ccccc1C(=O)C2=O (stereo not drawn) | 621 | 
COc1ccccc1C1CC(=O)NC2=C1C(=O)C(=O)c1ccccc12 (stereo not drawn) | 354 | 
Cc1cccc(C2CC(=O)NC3=C2C(=O)C(=O)c2ccccc23)c1 (stereo not drawn) | 333 | 
O=C1CC(c2ccccc2)C2=C(N1)c1ccccc1C(=O)C2=O (stereo not drawn) | 364 | GI50 (MCF7): 15.3 µM; GI50 (A549 [2]): 11.7 µM; GI50 (HepG2 [3]): 3.09 µM
CC1(C)CCC2=C(O1)c1ccccc1C(=O)C2=O [LAPACHONE] |  | inhibition in vivo at 20 mg/kg (HepG2 [4]): 67.3%; RatioGI50 [5]: 2; GI50 (HepG2 [6]): 6.21 µM; GI50 (MCF7): 4.17 µM; GI50 (A549 [7]): 6.19 µM; Activity (HepG2 [8]): Tde; GI50 (A549 [2]): 3.32 µM; RatioGI50 [9]: 2; GI50 (A549 [10]): 6 µM; RatioGI50 [11]: 2; GI50 (HepG2 [3]): 2.83 µM; GI50 at 48 h [12]: 4.54 µM; GI50 (HepG2 [13]): 6.3 µM; RatioGI50 [14]: 2
COc1cc(OC)cc(C2CC(=O)NC3=C2C(=O)C(=O)c2ccccc23)c1 (stereo not drawn) | 194 | 
CCCC1CC(=O)NC2=C1C(=O)C(=O)c1ccccc12 (stereo not drawn) | 486 | 
Cc1ccccc1C1CC(=O)NC2=C1C(=O)C(=O)c1ccccc12 (stereo not drawn) | 448 | 
O=C1CC(c2c(F)cccc2F)C2=C(N1)c1ccccc1C(=O)C2=O (stereo not drawn) | 160 | 
Cc1ccc(C2CC(=O)NC3=C2C(=O)C(=O)c2ccccc23)cc1 (stereo not drawn) | 275 | 
O=C1CC(c2ccccc2Cl)C2=C(N1)c1ccccc1C(=O)C2=O (stereo not drawn) | 467 | 
O=C1CC(c2ccccc2F)C2=C(N1)c1ccccc1C(=O)C2=O (stereo not drawn) | 1360 | GI50 (MCF7): 2.3 µM; GI50 (A549 [2]): 3.89 µM; GI50 (HepG2 [3]): 2.57 µM
COc1cc(C2CC(=O)NC3=C2C(=O)C(=O)c2ccccc23)cc(OC)c1OC (stereo not drawn) | 684 | 
CCCCCC1CC(=O)NC2=C1C(=O)C(=O)c1ccccc12 (stereo not drawn) | 175 | 
COc1ccc(C2CC(=O)NC3=C2C(=O)C(=O)c2ccccc23)cc1F (stereo not drawn) | 192 | 
O=C1CC(c2ccc(Cl)cc2)C2=C(N1)c1ccccc1C(=O)C2=O (stereo not drawn) | 557 | 
COc1ccc(OC)c(C2CC(=O)NC3=C2C(=O)C(=O)c2ccccc23)c1 (stereo not drawn) | 180 | 
O=C1CC(C2CCCC2)C2=C(N1)c1ccccc1C(=O)C2=O (stereo not drawn) | 491 | 
O=C1CC(c2cccc(O)c2)C2=C(N1)c1ccccc1C(=O)C2=O (stereo not drawn) | 509 | 
CC(C)C1CC(=O)NC2=C1C(=O)C(=O)c1ccccc12 (stereo not drawn) | 786 | 
O=C1CC(c2ccc([N+](=O)[O-])cc2)C2=C(N1)c1ccccc1C(=O)C2=O (stereo not drawn) | 182 | 
COc1cccc(C2CC(=O)NC3=C2C(=O)C(=O)c2ccccc23)c1 (stereo not drawn) | 586 | 
O=C1CC(c2ccco2)C2=C(N1)c1ccccc1C(=O)C2=O (stereo not drawn) | 613 | 
O=C1CC(C2CCCCC2)C2=C(N1)c1ccccc1C(=O)C2=O (stereo not drawn) | 283 | 
O=C1CC(c2ccc(F)cc2F)C2=C(N1)c1ccccc1C(=O)C2=O (stereo not drawn) | 936 | 
O=C1CC(c2ccc(Cl)cc2Cl)C2=C(N1)c1ccccc1C(=O)C2=O (stereo not drawn) | 760 | GI50 (MCF7): 8.81 µM; GI50 (A549 [2]): 3.13 µM; GI50 (HepG2 [3]): 3.27 µM
O=C1CC(c2cccc(C(F)(F)F)c2)C2=C(N1)c1ccccc1C(=O)C2=O (stereo not drawn) | 1030 | GI50 (MCF7): 8.96 µM; GI50 (A549 [2]): 12.6 µM; GI50 (HepG2 [3]): 4.24 µM
COc1cc(C2CC(=O)NC3=C2C(=O)C(=O)c2ccccc23)ccc1O (stereo not drawn) | 1440 | GI50 (MCF7): 1.89 µM; GI50 (A549 [2]): 4.38 µM; GI50 (HepG2 [3]): 2.24 µM
O=C1CC(c2cc([N+](=O)[O-])ccc2Cl)C2=C(N1)c1ccccc1C(=O)C2=O (stereo not drawn) | 195 | 
O=C1CC(c2ccc(F)cc2)C2=C(N1)c1ccccc1C(=O)C2=O (stereo not drawn) | 392 | 
